Data as given in patent US11279733B2, “Peptide antibiotics” (priority 2017, dated 2022).
Like-named read-outs stand apart in the source and are kept apart here.

Key:
HEK293 cells = assay: Cytotoxicity, resazurin assay, HEK293
Procedure, shortened: (§1)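 Compound exposure lasted 24 h, following 24 h attachment of 4000 cells/well at 37° C under 5% CO2.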

HepG2 cells = assay: Cytotoxicity, resazurin assay, HepG2
Procedure, shortened: as §1

Neisseria gonorrhoeae = assay: MIC determination, Neisseria gonorrhoeae; type: cell-based
Procedure, shortened: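 Mid-log cultures grown in Mueller Hinton broth at 37° C were tested by 2-fold broth microdilution at 5×10^5 CFU/mL final. Compounds were dissolved in water and tested over a final range of 32 to 0.015 μg/mL.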

Substance: polymyxin B sulfate [PolymyxinB, reference compound]
- CC50 (HEK293 cells; read-out: HEK-293-CC50, HEK293, 24 h): > 300 µM
- CC50 (HEK293 cells; read-out: HEK-293-CC50, HEK293 cells): > 300 µM
- CC50 (HEK293 cells; read-out: HEK-293-CC50, Table 5, HEK293 cells): > 300 µM
- CC50 (HEK293 cells; read-out: HEK-293-CC50, Table 6, HEK293 cells): > 300 µM
- CC50 (HEK293 cells; read-out: HEK-293 CC50, HEK293 cells): > 300 µM
- CC50 (HepG2 cells; read-out: Hep G2-CC50, HepG2, 24 h): > 300 µM
- CC50 (HepG2 cells; read-out: Hep G2-CC50, HepG2 cells): > 300 µM
- CC50 (HepG2 cells; read-out: Hep G2-CC50, Table 5, HepG2 cells): > 300 µM
- CC50 (HepG2 cells; read-out: Hep G2-CC50, Table 6, HepG2 cells): > 300 µM
- CC50 (HepG2 cells; read-out: Hep G2 CC50, HepG2 cells): > 300 µM
- MIC N. gonorrhoeae F89 (Neisseria gonorrhoeae; strain F89): 9.38 µg/mL
- MIC N. gonorrhoeae FA19 ATCC BAA-1838 (Neisseria gonorrhoeae; strain FA19 ATCC BAA-1838): 12.5 µg/mL
- MIC N. gonorrhoeae FA1090 A25 ATCC 700825 (Neisseria gonorrhoeae; strain FA1090 A25 ATCC 700825): 10.42 µg/mL
- MIC N. gonorrhoeae H041 (Neisseria gonorrhoeae; strain H041): 8.33 µg/mL
